Experimental data taken from patent US9801960B2, “Probe for a biological specimen and labelling method and screening method using the probe” (CANON KABUSHIKI KAISHA, priority 2008, dated 2017).

Assays:
Zebrafish juveniles = assay: In vivo labelling of Zebrafish juveniles with probe for biological specimen; design: key to Staining property: +++: stained; −: no stained; key to Fluorescence sensitivity: +++: strongly observed; ++: moderately observed; +: weakly observed; −: no stained; conditions: 1 hour; for Site(s) to be labelled: 10 ng/mL in water, stereoscopic microscope; for Fluorescence sensitivity / Staining property: 10 ng/mL; for Fluorescence sensitivity: fluorescence intensity visually evaluated; for Staining property: visually evaluated
Protocol: Five juveniles of Zebrafish were put into one well of a well plate together with rearing water. After rearing water had been discharged, 1 mL of distilled water was added to the well, and a solution of a staining compound (1) in DMSO was further added thereto so as to achieve a concentration of 10 ng/mL, followed by gentle stirring (pipetting). Further, Egg Water was prepared by dissolving artificial seawater SEALIFE (manufactured by Marinetech Co., Ltd.) in distilled water at a concentration of 60 mg/L. After the whole had been left to stand for 1 hour, distilled water in the well was discharged and replaced by 1 mL of fresh Egg Water. In addition, such an operation that Egg Water was discharged and replaced by 1 mL of fresh Egg Water was repeated twice. One of the juveniles was taken out from the well onto a dish, supplemented with 100 μL of a 3% methylcellulose aqueous solution to fix the movement of the juvenile, and photographed with a stereoscopic microscope (MZ10F: manufactured by Leica Microsystems K.K.).
The same operation as that in Example 1 was performed except that the staining compound (1) used in Example 1 was changed to any one of the staining compounds described in Table 1.
The same operation as that in Example 1 was performed except that the staining compound (1) used in Example 1 was changed to any one of indocyanine green (ICG) and fluorescein.
The staining property of each of the staining compounds of Labelled Examples 1 to 78 and Labelled Comparative Examples 1 and 2 was visually evaluated (+++: stained and −: no stained).
The fluorescence intensity of each of the staining compounds of Labelled Examples 1 to 78 and Labelled Comparative Examples 1 and 2 was visually evaluated (+++: strongly observed, ++: moderately observed, +: weakly observed, and −: no stained).

[1] = Storage stability of staining compound solution in DMSO; format: physicochemical; conditions: 10 ng/mL in DMSO, closed glass container, normal temperature, 1 month; rate of change of absorbance and fluorescence intensity
Protocol: A 10 ng/mL solution of each of the staining compounds of Labelled Examples 1 to 78 and Labelled Comparative Examples 1 and 2 in DMSO was prepared, charged into a well-closed container made of glass, and left to stand still at normal temperature for 1 month. The absorbance and the fluorescence intensity at the time of the start of a storage stability test were measured at a given wavelength, and their rates of change were examined (+++: rates of change of the absorbance and the fluorescence intensity are less than 5%, and thus, the storage stability is highly excellent; ++: rates of change of the absorbance and fluorescence intensity are 5 to 15%, and thus, the storage stability is excellent; and −: rates of change of the absorbance and fluorescence intensity are more than 15%, and thus, the storage stability is poor).

[2] = Excitation and fluorescence emission wavelength measurement; format: physicochemical; design: Stokes shift (λem − λex): unit not given here; conditions: aqueous solution: 10 mg/mL solution in DMSO diluted 500-fold with purified water
Protocol: It should be noted that the excitation wavelength and the fluorescence emission wavelength of the staining compound were determined by measuring an aqueous solution, which had been obtained by diluting 500-fold a 10 mg/mL solution of the staining compound in DMSO with purified water, with a fluorescence spectrophotometer FL 4500 manufactured by Hitachi High-Technologies Corporation.

## COc1cc(/C=C2\C(=O)ON=C2c2ccccc2)cc2c1N(c1ccccc1)C1CCCC21 (centres unmarked) [Dye 34]
Zebrafish juveniles
  Site(s) to be labelled: nose
  Fluorescence sensitivity: +++
  Staining property: +++
[1]
  Storage stability: +++ (rates of change of the absorbance and the fluorescence intensity are less than 5%, and thus, the storage stability is highly excellent)
[2]
  Excitation wavelength λex: 570 nm
  Fluorescence emission wavelength λem: 657 nm
  Stokes shift (λem − λex): 87

## CC1(C)C(/C=C/c2ccc3c(c2)C2CCCC2N3c2ccc(C=C(c3ccccc3)c3ccccc3)cc2)=[N+](CCC(=O)O)c2ccccc21 (centres unmarked) [Dye 35]
Zebrafish juveniles
  Site(s) to be labelled: nose
  Fluorescence sensitivity: +++
  Staining property: +++
[1]
  Storage stability: ++ (rates of change of the absorbance and fluorescence intensity are 5 to 15%, and thus, the storage stability is excellent)
[2]
  Excitation wavelength λex: 611 nm
  Fluorescence emission wavelength λem: 720 nm
  Stokes shift (λem − λex): 109

## COc1ccc(N2c3ccc(/C=C4/SC(=S)N(CC(=O)O)C4=O)cc3C3CCCC32)cc1 (centres unmarked) [Dye 37]
Zebrafish juveniles
  Site(s) to be labelled: gallbladder
  Fluorescence sensitivity: +++
  Staining property: +++
[1]
  Storage stability: ++ (rates of change of the absorbance and fluorescence intensity are 5 to 15%, and thus, the storage stability is excellent)
[2]
  Excitation wavelength λex: 571 nm
  Fluorescence emission wavelength λem: 648 nm
  Stokes shift (λem − λex): 77

## CCN1C(=O)/C(=c2\s/c(=C/c3ccc4c(c3)C3CCCC3N4c3ccc(OC)cc3)c(=O)n2CC(=O)O)SC1=S (centres unmarked) [Dye 38]
Zebrafish juveniles
  Site(s) to be labelled: gastrointestinal tract
  Fluorescence sensitivity: +++
  Staining property: +++
[1]
  Storage stability: +++ (rates of change of the absorbance and the fluorescence intensity are less than 5%, and thus, the storage stability is highly excellent)
[2]
  Excitation wavelength λex: 582 nm
  Fluorescence emission wavelength λem: 679 nm
  Stokes shift (λem − λex): 97

## CCN1C(=O)/C(=c2\s/c(=C/c3ccc4c(c3)C3CCCC3N4Cc3ccccc3)c(=O)n2CC(=O)O)SC1=S (centres unmarked) [Dye 40]
Zebrafish juveniles
  Site(s) to be labelled: blood vessel, liver, and gastrointestinal tract
  Fluorescence sensitivity: +++
  Staining property: +++
[1]
  Storage stability: +++ (rates of change of the absorbance and the fluorescence intensity are less than 5%, and thus, the storage stability is highly excellent)
[2]
  Excitation wavelength λex: 576 nm
  Fluorescence emission wavelength λem: 657 nm
  Stokes shift (λem − λex): 81

## O=C(O)C1=NN(c2ccccc2)C(=O)/C1=C\c1cc(Br)c2c(c1)C1CCCC1N2c1ccc(Br)cc1 (centres unmarked) [Dye 42]
Zebrafish juveniles
  Site(s) to be labelled: skin surface, liver, and gastrointestinal tract
  Fluorescence sensitivity: +++
  Staining property: +++
[1]
  Storage stability: ++ (rates of change of the absorbance and fluorescence intensity are 5 to 15%, and thus, the storage stability is excellent)
[2]
  Excitation wavelength λex: 563 nm
  Fluorescence emission wavelength λem: 618 nm
  Stokes shift (λem − λex): 55

## COc1ccc2cc(N3c4ccc(/C=C5\C(=O)N(c6ccc(C(=O)O)cc6)N=C5C)cc4C4CCCC43)ccc2c1 (centres unmarked) [Dye 43]
Zebrafish juveniles
  Fluorescence sensitivity: +++
  Staining property: +++
[1]
  Storage stability: +++ (rates of change of the absorbance and the fluorescence intensity are less than 5%, and thus, the storage stability is highly excellent)
[2]
  Excitation wavelength λex: 569 nm
  Fluorescence emission wavelength λem: 649 nm
  Stokes shift (λem − λex): 80

## CC1=NN(c2ccc(C(=O)O)cc2)C(=O)/C1=C\c1ccc2c(c1)C1CCCC1N2Cc1ccccc1 (centres unmarked) [Dye 44]
Zebrafish juveniles
  Site(s) to be labelled: liver and gastrointestinal tract
  Fluorescence sensitivity: +++
  Staining property: +++
[1]
  Storage stability: ++ (rates of change of the absorbance and fluorescence intensity are 5 to 15%, and thus, the storage stability is excellent)
[2]
  Excitation wavelength λex: 510 nm
  Fluorescence emission wavelength λem: 558 nm
  Stokes shift (λem − λex): 48

## COc1ccc2cc(N3c4ccc(/C=C/c5sc6ccccc6[n+]5CC(=O)O)cc4C4CCCC43)ccc2c1 (centres unmarked) [Dye 45]
Zebrafish juveniles
  Site(s) to be labelled: nose
  Fluorescence sensitivity: +++
  Staining property: +++
[1]
  Storage stability: +++ (rates of change of the absorbance and the fluorescence intensity are less than 5%, and thus, the storage stability is highly excellent)
[2]
  Excitation wavelength λex: 401 nm
  Fluorescence emission wavelength λem: 516 nm
  Stokes shift (λem − λex): 115

## O=C(O)C1=NN(c2ccccc2)C(=O)/C1=C\c1ccc2c(c1)C1CCCC1N2c1ccc(Cc2ccccc2)cc1 (centres unmarked) [Dye 50]
Zebrafish juveniles
  Fluorescence sensitivity: +++
  Staining property: +++
[1]
  Storage stability: ++ (rates of change of the absorbance and fluorescence intensity are 5 to 15%, and thus, the storage stability is excellent)
[2]
  Excitation wavelength λex: 481 nm
  Fluorescence emission wavelength λem: 586 nm
  Stokes shift (λem − λex): 105

## O=C(O)C1=NN(c2ccccc2)C(=O)/C1=C\c1ccc2c(c1)C1CCCC1N2c1ccc(C=C(c2ccccc2)c2ccccc2)cc1 (centres unmarked) [Dye 51]
Zebrafish juveniles
  Site(s) to be labelled: gallbladder and gastrointestinal tract
  Fluorescence sensitivity: +
  Staining property: +++
[1]
  Storage stability: ++ (rates of change of the absorbance and fluorescence intensity are 5 to 15%, and thus, the storage stability is excellent)
[2]
  Excitation wavelength λex: 582 nm
  Fluorescence emission wavelength λem: 670 nm
  Stokes shift (λem − λex): 88

## COc1ccc(N2c3ccc(/C=C4\C(=O)N(c5ccc(C(=O)O)cc5)N=C4C)cc3C3CCCC32)cc1 (centres unmarked) [Dye 54]
Zebrafish juveniles
  Site(s) to be labelled: gastrointestinal tract and nose
  Fluorescence sensitivity: ++
  Staining property: +++
[1]
  Storage stability: +++ (rates of change of the absorbance and the fluorescence intensity are less than 5%, and thus, the storage stability is highly excellent)
[2]
  Excitation wavelength λex: 610 nm
  Fluorescence emission wavelength λem: 633 nm
  Stokes shift (λem − λex): 23

## COc1ccc(N2c3ccc(/C=C(\C#N)C(=O)O)cc3C3CCCC32)cc1 (centres unmarked) [Dye 56]
Zebrafish juveniles
  Site(s) to be labelled: liver, gallbladder, and gastrointestinal tract
  Fluorescence sensitivity: +++
  Staining property: +++
[1]
  Storage stability: +++ (rates of change of the absorbance and the fluorescence intensity are less than 5%, and thus, the storage stability is highly excellent)
[2]
  Excitation wavelength λex: 437 nm
  Fluorescence emission wavelength λem: 585 nm
  Stokes shift (λem − λex): 148

## CCN1C(=O)/C(=c2\s/c(=C/c3cc(Br)c4c(c3)C3CCCC3N4c3ccc(Br)cc3)c(=O)n2CC(=O)O)SC1=S (centres unmarked) [Dye 59]
Zebrafish juveniles
  Site(s) to be labelled: blood vessel, nose, and gastrointestinal tract
  Fluorescence sensitivity: +++
  Staining property: +++
[1]
  Storage stability: +++ (rates of change of the absorbance and the fluorescence intensity are less than 5%, and thus, the storage stability is highly excellent)
[2]
  Excitation wavelength λex: 559 nm
  Fluorescence emission wavelength λem: 671 nm
  Stokes shift (λem − λex): 112

## CCCCN1C(=O)/C(=c2\s/c(=C/c3ccc4c(c3)C3CCCC3N4c3ccccc3)c(=O)n2CC(=O)OCC)SC1=S (centres unmarked) [Dye 60]
Zebrafish juveniles
  Site(s) to be labelled: gastrointestinal tract
  Fluorescence sensitivity: ++
  Staining property: +++
[1]
  Storage stability: +++ (rates of change of the absorbance and the fluorescence intensity are less than 5%, and thus, the storage stability is highly excellent)
[2]
  Excitation wavelength λex: 563 nm
  Fluorescence emission wavelength λem: 609 nm
  Stokes shift (λem − λex): 46

## CCCCN1C(=O)/C(=c2\s/c(=C/c3ccc4c(c3)C3CCCC3N4c3ccc(OC)cc3)c(=O)n2CC(=O)OCC)SC1=S (centres unmarked) [Dye 62]
Zebrafish juveniles
  Site(s) to be labelled: gastrointestinal tract
  Fluorescence sensitivity: +++
  Staining property: +++
[1]
  Storage stability: +++ (rates of change of the absorbance and the fluorescence intensity are less than 5%, and thus, the storage stability is highly excellent)
[2]
  Excitation wavelength λex: 450 nm
  Fluorescence emission wavelength λem: 527 nm
  Stokes shift (λem − λex): 77
